Patent publication US20190151312A1, “HEPARAN SULFATE BIOSYNTHESIS INHIBITORS FOR THE TREATMENT OF DISEASES” (BioMarin Pharmaceutical Inc., priority 2014, published 2019)
Read-outs that look alike come from different tables or passages of the source.

Test system: GM01896 cells (MPS II dermal fibroblasts)
Assay: Assay 1: MPS cellular assay, MPS II (heparan sulfate disaccharide biomarkers by LC-MS)
Type: cell-based, human
Conditions: Assay 1 for MPS II, heparan sulfate disaccharide biomarkers (I2a4, I2a6, I2S0 and/or I2S6), read-out: IC50 Range
How it was run: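 Heparan sulfate disaccharide biomarkers quantified by LC-MS after heparinase I/II/III digestion and isotopic aniline labelling, using GM01896 MPS II fibroblasts exposed to compound (at or below 30 μM, 4-21 days). Values given as IC50 by curve fitting; cell viability checked with alamar blue or ATP.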

Compound	IC50 (Homo sapiens, Fibroblast)	IC50
Cc1nc2ccc(-c3cc(Nc4ccc(Cl)cc4)nc(N4CCOCC4)n3)cc2n1C1COC1 [(4-chlorophenyl)[6-(2-methyl-1-oxetan-3-ylbenzimidazol-6-yl)-2-morpholin-4-ylpyrimidin-4-yl]amine]	< 500 nM	–
CNC(=O)c1ccc(Nc2cc(-c3ccc4c(c3)ncn4CCN3CCOCC3)nc(N3CCOCC3)n2)cc1 [N-methyl[4-({2-morpholin-4-yl-6-[1-(2-morpholin-4-ylethyl)benzimidazol-5-yl]pyrimidin-4-yl}amino)phenyl]carboxamide]	500 to 1000 nM	–
Cc1nn(C)c2cc(-c3cc(Nc4ccc(C5=NCCO5)cc4)nc(N4CCOCC4)n3)ccc12 [[6-(1,3-dimethyl(1H-indazol-6-yl))-2-morpholin-4-ylpyrimidin-4-yl](4-(1,3-oxazolin-2-yl)phenyl)amine]	1000 to 5000 nM	–
Cn1ccc2ccc(Nc3cc(-c4ccc5c(CCCN6C(=O)c7ccccc7C6=O)nn(C)c5c4)nc(N4CCOCC4)n3)cc21 [2-[3-(1-methyl-6-{6-[(1-methylindol-6-yl)amino]-2-morpholin-4-ylpyrimidin-4-yl}-1H-indazol-3-yl)propyl]benzo[c]azoline-1,3-dione]	< 500 nM	–
CNC(=O)c1ccc(Nc2cc(-c3ccc4c(cnn4CCCN4CCOCC4)c3)nc(N3CCOCC3)n2)cc1 [N-methyl[4-({2-morpholin-4-yl-6-[1-(3-morpholin-4-ylpropyl)(1H-indazol-5-yl)]pyrimidin-4-yl}amino)phenyl]carboxamide]	1000 to 5000 nM	–
Cn1ncc2ccc(-c3cc(Nc4cccc(-c5ncco5)c4)nc(N4CCOCC4)n3)cc21 [[6-(1-methyl(1H-indazol-6-yl))-2-morpholin-4-ylpyrimidin-4-yl](3-(1,3-oxazol-2-yl)phenyl)amine]	1000 to 5000 nM	–
CNC(=O)c1ccc(Nc2cc(-c3ccc4cn(CC5CC5)nc4c3)nc(N3CCOCC3)n2)cn1 [[5-({6-[2-(cyclopropylmethyl)(2H-indazol-6-yl)]-2-morpholin-4-ylpyrimidin-4-yl}amino)(2-pyridyl)]-N-methylcarboxamide]	1000 to 5000 nM	–
Cn1nc2ccc(Nc3cc(-c4ccc5cnn(C)c5c4)nc(N4CCOCC4)n3)cc2n1 [[6-(1-methyl(1H-indazol-6-yl))-2-morpholin-4-ylpyrimidin-4-yl](2-methyl(2-hydrobenzotriazol-5-yl))amine]	–	1000 to 5000 nM
CNC(=O)c1ccc(Nc2cc(-c3ccc4nn(CC5CC5)cc4c3)nc(N3CCOCC3)n2)cn1 [[5-({6-[2-(cyclopropylmethyl)(2H-indazol-5-yl)]-2-morpholin-4-ylpyrimidin-4-yl}amino)(2-pyridyl)]-N-methylcarboxamide]	1000 to 5000 nM	–
Cc1nn(CCN2CCOCC2)c2cc(-c3cc(Nc4ccc(Cl)cc4)nc(N4CCOCC4)n3)ccc12 [(4-chlorophenyl){6-[3-methyl-1-(2-morpholin-4-ylethyl)(1H-indazol-6-yl)]-2-morpholin-4-ylpyrimidin-4-yl}amine]	500 to 1000 nM	–
Cn1nc(NCCN2CCCC2)c2ccc(-c3cc(Nc4ccc(Cl)cc4)nc(N4CCOCC4)n3)cc21 [(4-chlorophenyl)(6-{1-methyl-3-[(2-pyrrolidinylethyl)amino](1H-indazol-6-yl)}-2-morpholin-4-ylpyrimidin-4-yl)amine]	500 to 1000 nM	–
Cn1nc(NCCCN2CCOCC2)c2ccc(-c3cc(Nc4ccc(Cl)cc4)nc(N4CCOCC4)n3)cc21 [(4-chlorophenyl)(6-{1-methyl-3-[(3-morpholin-4-ylpropyl)amino](1H-indazol-6-yl)}-2-morpholin-4-ylpyrimidin-4-yl)amine]	500 to 1000 nM	–
Cc1cn(C)c2cc(Nc3cc(-c4ccc5c(CCN6CCOCC6)nn(C)c5c4)nc(N4CCOCC4)n3)ccc12 [(1,3-dimethylindol-6-yl){6-[1-methyl-3-(2-morpholin-4-ylethyl)(1H-indazol-6-yl)]-2-morpholin-4-ylpyrimidin-4-yl}amine]	500 to 1000 nM	–
COc1cc(Nc2cc(-c3ccc4ncn(C)c4c3)nc(N3CCOCC3)n2)ccn1 [(2-methoxy(4-pyridyl))[6-(1-methylbenzimidazol-6-yl)-2-morpholin-4-ylpyrimidin-4-yl]amine]	500 to 1000 nM	–
CNC(=O)c1ccc(Nc2cc(-c3ccc4c(cnn4C)c3)nc(N3CCOCC3)n2)cc1 [N-methyl(4-{[6-(1-methyl(1H-indazol-5-yl))-2-morpholin-4-ylpyrimidin-4-yl]amino}phenyl)carboxamide]	500 to 1000 nM	–
Cn1ccnc1-c1ccc(Nc2cc(-c3ccc4c(CCN5CCOCC5)nn(C)c4c3)nc(N3CCOCC3)n2)cc1 [[4-(1-methylimidazol-2-yl)phenyl]{6-[1-methyl-3-(2-morpholin-4-ylethyl)(1H-indazol-6-yl)]-2-morpholin-4-ylpyrimidin-4-yl}amine]	500 to 1000 nM	–
Cc1nn(C)c2cc(-c3cc(Nc4ccc(-c5cnn[nH]5)cc4)nc(N4CCOCC4)n3)ccc12 [(4-(1H-1,2,3-triazol-5-yl)phenyl)[6-(1,3-dimethyl(1H-indazol-6-yl))-2-morpholin-4-ylpyrimidin-4-yl]amine]	500 to 1000 nM	–
Cn1cnc2ccc(-c3cc(Nc4ccccc4)nc(N4CCOCC4)n3)cc21 [[6-(1-methylbenzimidazol-6-yl)-2-morpholin-4-ylpyrimidin-4-yl]phenylamine]	1000 to 5000 nM	–
Clc1ccc(Nc2cc(-c3ccc4ncn(C5CCC5)c4c3)nc(N3CCOCC3)n2)cc1 [(4-chlorophenyl)[6-(1-cyclobutylbenzimidazol-6-yl)-2-morpholin-4-ylpyrimidin-4-yl]amine]	500 to 1000 nM	–
Cn1ncc2ccc(-c3cc(Nc4ccc(Cl)cc4)nc(N4CCOCC4)n3)cc21 [(4-chlorophenyl)[6-(1-methyl(1H-indazol-6-yl))-2-morpholin-4-ylpyrimidin-4-yl]amine]	500 to 1000 nM	–
Cc1nc2ccc(-c3cc(Nc4ccc5ccn(C)c5c4)nc(N4CCOCC4)n3)cc2n1CC1CC1 [{6-[1-(cyclopropylmethyl)-2-methylbenzimidazol-6-yl]-2-morpholin-4-ylpyrimidin-4-yl}(1-methylindol-6-yl)amine]	< 500 nM	–
COc1cc(Nc2cc(-c3ccc4c(c3)ncn4C)nc(N3CCOCC3)n2)ccn1 [(2-methoxy(4-pyridyl))[6-(1-methylbenzimidazol-5-yl)-2-morpholin-4-ylpyrimidin-4-yl]amine]	1000 to 5000 nM	–
Cn1c(CCN2CCOCC2)nc2ccc(-c3cc(Nc4ccc(Cl)cc4)nc(N4CCOCC4)n3)cc21 [(4-chlorophenyl){6-[1-methyl-2-(2-morpholin-4-ylethyl)benzimidazol-6-yl]-2-morpholin-4-ylpyrimidin-4-yl}amine]	< 500 nM	–
CNC(=O)c1ccc(Nc2cc(-c3ccc4ncn(C5CC5)c4c3)nc(N3CCOCC3)n2)cn1 [(5-{[6-(1-cyclopropylbenzimidazol-6-yl)-2-morpholin-4-ylpyrimidin-4-yl]amino}(2-pyridyl))-N-methylcarboxamide]	500 to 1000 nM	–
COc1ccc(Nc2cc(-c3ccc4ncn(C)c4c3)nc(N3CCOCC3)n2)cc1 [(4-methoxyphenyl)[6-(1-methylbenzimidazol-6-yl)-2-morpholin-4-ylpyrimidin-4-yl]amine]	1000 to 5000 nM	–
Clc1ccc(Nc2cc(-c3ccc4cnn(CCCN5CCCC5)c4c3)nc(N3CCOCC3)n2)cc1 [(4-chlorophenyl){2-morpholin-4-yl-6-[1-(3-pyrrolidinylpropyl)(1H-indazol-6-yl)]pyrimidin-4-yl}amine]	1000 to 5000 nM	–
Cc1nn(C)c2cc(-c3cc(Nc4ccc5cc(C)n(C)c5c4)nc(N4CCOCC4)n3)ccc12 [[6-(1,3-dimethyl(1H-indazol-6-yl))-2-morpholin-4-ylpyrimidin-4-yl](1,2-dimethylindol-6-yl)amine]	500 to 1000 nM	–
